The source of these data is patent publication US12692254B2, “Benzimidazole inhibitors of PAD enzymes” (BRISTOL-MYERS SQUIBB COMPANY, priority 2018, dated 2026).

The test has as its target human PAD4 (hPAD4) (Homo sapiens, UniProt Q9UM07). Briefly: RFMS human PAD4 functional assay (rapid-fire mass spectrum). In kind it is biochemical. The settings on record: 5 nM hPAD4 enzyme, 250 μM BAEE, 50 μM Calcium; 30 min preincubation, 90 min reaction at 37° C. An outline of the steps:
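PAD4 (10 nM) preincubated 30 min with compound (top final 50 μM), then BAEE substrate added in pH 7.5 HEPES buffer with DTT, 50 μM calcium, TPEN; 90 min at 37° C. After TCA quench, citrulline derivatized with phenyl glyoxal (4 mM final, 30 min, 37° C) and quantified by RapidFire MS against internal standard.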

Sequence of human PAD4 (hPAD4) (Q9UM07 whole entry): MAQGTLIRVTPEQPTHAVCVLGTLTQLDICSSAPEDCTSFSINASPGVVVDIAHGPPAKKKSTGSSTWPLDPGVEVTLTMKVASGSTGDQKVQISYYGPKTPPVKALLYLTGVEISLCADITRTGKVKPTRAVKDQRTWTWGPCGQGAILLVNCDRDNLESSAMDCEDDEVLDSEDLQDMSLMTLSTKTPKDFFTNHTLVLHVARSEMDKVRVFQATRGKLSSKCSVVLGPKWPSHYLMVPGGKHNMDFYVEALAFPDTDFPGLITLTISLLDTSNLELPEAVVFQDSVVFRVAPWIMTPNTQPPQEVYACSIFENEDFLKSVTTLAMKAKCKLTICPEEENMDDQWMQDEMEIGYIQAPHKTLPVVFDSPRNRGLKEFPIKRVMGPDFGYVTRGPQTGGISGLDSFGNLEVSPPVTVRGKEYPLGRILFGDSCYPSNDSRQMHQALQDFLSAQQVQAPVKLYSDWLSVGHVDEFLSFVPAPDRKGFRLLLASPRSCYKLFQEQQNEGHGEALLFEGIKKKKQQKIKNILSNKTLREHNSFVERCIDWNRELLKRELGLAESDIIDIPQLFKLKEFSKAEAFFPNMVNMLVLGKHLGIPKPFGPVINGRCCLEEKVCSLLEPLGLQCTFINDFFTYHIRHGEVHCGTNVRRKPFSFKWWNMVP

As usually defined, the IC50 is the concentration that inhibits the measured activity by half. Take `CCC#CC(=O)N1CC(Cn2c(-c3cc4cccnc4n3CC3CC3)nc3cc(C(=O)N4C[C@H]5CC[C@@H]4[C@@H]5N)cc(OC)c32)C1` [Example 108, 1-[3-({5-[(1R,4R,7R)-7-amino-2-azabicyclo[2.2.1]heptane-2-carbonyl]-2-[1-(cyclopropylmethyl)-1H-pyrrolo[2,3-b]pyridin-2-yl]-7-methoxy-1H-1,3-benzodiazol-1-yl}methyl)azetidin-1-yl]pent-2-yn-1-one]: the IC50 worked out at 40 nM.
For the molecule `COc1cc(C(=O)N2C[C@H]3CC[C@@H]2[C@@H]3N)cc2nc(-c3cc4cccnc4n3CC3CC3)n(CC3CCN(C(=O)c4ccnc(Cl)n4)CC3)c12` [Example 230, (1R,4R,7R)-2-(1-{[1-(2-chloropyrimidine-4-carbonyl)piperidin-4-yl]methyl}-2-[1-(cyclopropylmethyl)-1H-pyrrolo[2,3-b]pyridin-2-yl]-7-methoxy-1H-1,3-benzodiazole-5-carbonyl)-2-azabicyclo[2.2.1]heptan-7-amine], the IC50 came to 237 nM.
Under `COc1cc(C(=O)N2CC3CCC2[C@@H]3N)cc2nc(-c3cc4ccccc4n3CC3CC3)n(CC3CCS(=O)(=O)C3)c12` (mixture of isomers) [Example 258, rac-((7R)-7-amino-2-azabicyclo[2.2.1]heptan-2-yl)(2-(1-(cyclopropylmethyl)-1H-indol-2-yl)-1-((1,1-dioxidotetrahydrothiophen-3-yl)methyl)-7-methoxy-1H-benzo[d]imidazol-5-yl)methanone] stands 43 nM.
The figure for `COc1cc(C(=O)N2CC3CCC2[C@@H]3N)cc2nc(-c3cccn3C)n(CC3CN(c4ccnc(C#N)n4)C3)c12` (stereo partly drawn) [Example 318, 4-[3-({5-[(1R,4R,7R)-7-amino-2-azabicyclo[2.2.1]heptane-2-carbonyl]-7-methoxy-2-(1-methyl-1H-pyrrol-2-yl)-1H-1,3-benzodiazo1-1-yl)methyl)azetidin-1-yl]pyrimidine-2-carbonitrile] is 1300 nM.
Under `COc1cc(C(=O)N2C[C@H]3CC[C@@H]2[C@@H]3N)cc2nc(-c3cc4cccnc4n3CC3CC3)n(CC3CN(c4cncnc4C#N)C3)c12` [Example 46, 5-[3-({5-[(1R,4R,7R)-7-amino-2-azabicyclo[2.2.1]heptane-2-carbonyl]-2-[1-(cyclopropylmethyl)-1H-pyrrolo[2,3-b]pyridin-2-yl]-7-methoxy-1H-1,3-benzodiazol-1-yl}methyl)azetidin-1-yl]pyrimidine-4-carbonitrile] stands 118 nM; under `COc1cc(C(=O)N2C[C@H]3CC[C@@H]2[C@@H]3N)cc2nc(-c3cc4cccnc4n3CC3CC3)n(CC3CN(C(=O)c4ccncc4)C3)c12` [Example 117, (1R,4R,7R)-2-{2-[1-(cyclopropylmethyl)-1H-pyrrolo[2,3-b]pyridin-2-yl]-7-methoxy-1-{[1-(pyridine-4-carbonyl)azetidin-3-yl]methyl}-1H-1,3-benzodiazole-5-carbonyl}-2-azabicyclo[2.2.1]heptan-7-amine], 66 nM.
`COc1cc(C(=O)N2CC3CCC2[C@@H]3N)cc2nc(-c3cc4cccnc4n3CC3CC3)n(Cc3cn[nH]c3)c12` (stereo partly drawn) [Example 488, (7R)-2-{2-[1-(cyclopropylmethyl)-1H-pyrrolo[2,3-b]pyridin-2-yl]-7-methoxy-1-[(1H-pyrazol-4-yl)methyl]-1H-1,3-benzodiazole-5-carbonyl}-2-azabicyclo[2.2.1]heptan-7-amine]: the IC50 was 55 nM.
Take `COc1cccc(C(=O)N2CC(Cn3c(-c4cc5ccccc5n4CC4CC4)nc4cc(C(=O)N5C[C@H]6CC[C@@H]5[C@@H]6N)cc(OC)c43)C2)c1` [Example 158, (1R,4R,7R)-2-{2-[1-(cyclopropylmethyl)-1H-indol-2-yl]-7-methoxy-1-{[1-(3-methoxybenzoyl)azetidin-3-yl]methyl}-1H-1,3-benzodiazole-5-carbonyl}-2-azabicyclo[2.2.1]heptan-7-amine]: the 50% inhibitory concentration (IC50) amounted to 23 nM.
